Measured values reported in patent US12514859B2, “Pyrazole pyrimidine derivative and uses thereof” (Yissum Research Development Company of the Hebrew …, priority 2015, dated 2026).

Columns and labels:
[1] = tested on: p53, DNA damage response (γH2AX); experiment: p53 and DNA damage response activation in RKO cells (Western blot, primary screen and dose response); assay type: cell-based; design: p53 stabilization: dose or concentration left out as unconfirmed; conditions: for DDR & p53 activity: 16 hours, Western blot, average value
Procedure: (§1) Primary Screen in RKO cells for compounds having typical CKIα inhibitory activity (β-catenin and p53 stabilization and histone H2AX phosphorylation; see Elyada et al, Nature 2011 Feb. 17; 470(7334):409-13; Pribluda et al, Cancer Cell 2013 Aug. 12; 24(2):242-56). RKO colorectal cells were incubated with 10 μM of each of the compounds for 16 hours at 37° C. Cells were washed with PBS and cell pellets were incubated with ice cold protein lysis buffer containing protease inhibitor cocktail (1/200; Calbiochem) and phosphatase inhibitors (20 mM p-nitrophenyl phosphate (PNPP), 20 mM β-glycerophosphate and 300 nM okadaic acid). Western blot analysis was performed by means of standard techniques. Blots were incubated with antibodies detecting β-catenin (1/2,500; BD Transduction), p53 (DO-1&1801 hybridoma mix; dilution of 1:20 of supernatants from each), CKIα (C-19; 1/1,000; Santa Cruz Biotechnology) and phospho-histoneH2AX (S139; 1/1,000; Millipore). Secondary antibodies were HRP-linked goat anti-mouse, goat anti-rabbit and rabbit anti-goat antibodies (all 1/10,000; Jackson). Blots were developed using ECL (GE Healthcare).
(§2) Active compounds were further analyzed in a dose-response experiment (FIGS. 1A and 1B). Similar to the primary screen, RKO cells were incubated with descending concentrations of each of the active compounds for 16 hours at 37° C. Cell extract isolation and Western Blot analysis were similar to the primary screen.
(§3) Table 1 provides quantified information for compounds of the invention in activation of p53 and DNA damage response (DDR) and β-catenin stabilization as an indicator of Wnt pathway activation. p53 activation was determined according to the degree of protein stabilization in several Western blot assays (Western blot examples are shown in FIGS. 1A and 1B). […] In contrast, A35 started stabilizing p53 at […], with maximal stabilization at […] (FIG. 1A, upper right panel) and thus received an average value of +++ for p53 activation.

[2] = tested on: Wnt/β-catenin; experiment: β-catenin stabilization (Wnt pathway activation) in RKO cells (Western blot); assay type: cell-based; conditions: 16 hours, Western blot
Procedure: as §1, §2, §3

Structure (SMILES) | DDR & p53 activity [1] | other results
Cn1ncc(-c2ccnc(NC3CCC(N)(CO)CC3)n2)c1CC1CC1 (centres unmarked) [Compound A19, (1-amino-4-((4-(5-(cyclopropylmethyl)-1-methyl-1H-pyrazol-4-yl)pyrimidin-2-yl)amino)cyclohexyl)methanol] | + (+ indicates low, yet significant activation at a compound concentration of 6 μM) | β-Catenin activity [2]: + (+ indicates low, yet significant activation at a compound concentration of 6 μM)
Cn1ncc(-c2ccnc(N[C@H]3CC[C@H](N(C)C)CC3)n2)c1CC1CC1 [Compound A28, (1r, 4r)-N^1-(4-(5-(cyclopropylmethyl)-1-methyl-1H-pyrazol-4-yl)pyrimidin-2-yl)-N4,N4-dimethylcyclohexane-1,4-diamine] |  | β-Catenin activity [2]: +++ (+++ indicates maximal β-catenin or p53 stabilization at >2 μM)
Cn1ncc(-c2nc(NC3CCC(C)(N)CC3)ncc2Cl)c1CC1CC1 [Compound A30-1, (1R,4R)—N^1-(5-chloro-4-(5-(cyclopropylmethyl)-1-methyl-1H-pyrazol-4-yl)pyrimidin-2-yl)-4-methylcyclohexane-1,4-diamine] | ++++ (++++ indicates maximal activation of p53 and DDR at >0.5 μM) | 
CC(C)n1ncc(-c2ccnc(N[C@H]3CC[C@H](N)CC3)n2)c1CC1CC1 [Compound A35, (1r, 4r)-N^1-(4-(5-(cyclopropylmethyl)-1-isopropyl-1H-pyrazol-4-yl)pyrimidin-2-yl)cyclohexane-1,4-diamine] | +++ (+++ indicates maximal β-catenin or p53 stabilization at >2 μM) | concentration at which p53 stabilization starts / is significantly above non-treatment control ([1]; FIG. 1A): 0.2 µM; concentration of maximal p53 stabilization ([1]; FIG. 1A): 1 µM
N[C@H]1CC[C@H](Nc2nccc(-c3cnn(C4COC4)c3CC3CC3)n2)CC1 [Compound A43, (1R, 4R)—N^1-(4-(5-(cyclopropylmethyl)-1-(oxetan-3-yl)-1H-pyrazol-4-yl)pyrimidin-2-yl)cyclohexane-1,4-diamine] | + (+ indicates low, yet significant activation at a compound concentration of 6 μM) | concentration at which p53 stabilization starts / is significantly above non-treatment control ([1]; FIG. 1A): 6 µM; p53 stabilization ([1]; FIG. 1A): no activity
Cn1ncc(-c2ccnc(N[C@H]3CC[C@H](N)CC3)n2)c1CC1CCC1 [Compound A45, (1R, 4R)—N^1-(4-(5-(cyclobutylmethyl)-1-methyl-1H-pyrazol-4-yl)pyrimidin-2-yl)cyclohexane-1,4-diamine] |  | β-Catenin activity [2]: + (+ indicates low, yet significant activation at a compound concentration of 6 μM)
Cn1ncc(-c2ccnc(N[C@H]3CC[C@H](N4CCCCC4)CC3)n2)c1CC1CC1 [Compound A47, 4-(5-(cyclopropylmethyl)-1-methyl-1H-pyrazol-4-yl)-N-((1R,4R)-4-(piperidin-1-yl)cyclohexyl)pyrimidin-2-amine] |  | β-Catenin activity [2]: + (+ indicates low, yet significant activation at a compound concentration of 6 μM)
Cn1ncc(-c2ccnc(N[C@H]3CC[C@H](N4CCCC4)CC3)n2)c1CC1CC1 [Compound A49, 4-(5-(cyclopropylmethyl)-1-methyl-1H-pyrazol-4-yl)-N-((1R, 4R)-4-(pyrrolidin-1-yl)cyclohexyl)pyrimidin-2-amine] | + (+ indicates low, yet significant activation at a compound concentration of 6 μM) | 
Cn1ncc(-c2ccnc(N[C@H]3CC[C@H](N4CCC4)CC3)n2)c1CC1CC1 [Compound A50, N-((1R, 4R)-4-(azetidin-1-yl)cyclohexyl)-4-(5-(cyclopropylmethyl)-1-methyl-1H-pyrazol-4-yl)pyrimidin-2-amine] | +++ (+++ indicates maximal β-catenin or p53 stabilization at >2 μM) | 
Cn1ncc(-c2ccnc(N[C@H]3CC[C@H](N)CC3)n2)c1C(O)C1CC1 (stereo partly drawn) [Compound A58, (4-(2-(((1R,4R)-4-aminocyclohexyl)amino)pyrimidin-4-yl)-1-methyl-1H-pyrazol-5-yl)(cyclopropyl)methanol] | + (+ indicates low, yet significant activation at a compound concentration of 6 μM) | 
CC(C)n1ncc(-c2nc(N[C@H]3CC[C@H](N)CC3)ncc2Cl)c1CC1CC1 [Compound A59, (1R,4R)—N^1-(5-chloro-4-(5-(cyclopropylmethyl)-1-isopropyl-1H-pyrazol-4-yl)pyrimidin-2-yl)cyclohexane-1,4-diamine] | +++ (+++ indicates maximal β-catenin or p53 stabilization at >2 μM) | 
Cn1ncc(-c2nc(N[C@H]3CC[C@H](n4cccn4)CC3)ncc2Cl)c1CC1CC1 [Compound A64, N-((1R,4R)-4-(1H-pyrazol-1-yl)cyclohexyl)-5-chloro-4-(5-(cyclopropylmethyl)-1-methyl-1H-pyrazol-4-yl)pyrimidin-2-amine] | + (+ indicates low, yet significant activation at a compound concentration of 6 μM) | 
Cn1ncc(-c2nc(NC3CCC(NCc4ccccc4)CC3)ncc2Cl)c1CC1CC1 [Compound A74, (1R,4R)—N^1-benzyl-N^4-(5-chloro-4-(5-(cyclopropylmethyl)-1-methyl-1H-pyrazol-4-yl)pyrimidin-2-yl)cyclohexane-1,4-diamine] | +++ (+++ indicates maximal β-catenin or p53 stabilization at >2 μM) | 
Cn1ncc(-c2nc(NC3CCC(NCc4cccnc4)CC3)ncc2Cl)c1CC1CC1 [Compound A76, (1R,4R)—N^1-(5-chloro-4-(5-(cyclopropylmethyl)-1-methyl-1H-pyrazol-4-yl)pyrimidin-2-yl)-N^4-(pyridin-3-ylmethyl)cyclohexane-1,4-diamine] | +++ (+++ indicates maximal β-catenin or p53 stabilization at >2 μM) | 
Cn1ncc(-c2nc(NC3CCC(NCc4ccn[nH]4)CC3)ncc2Cl)c1CC1CC1 [Compound A82, (1R,4R)—N^1-((1H-pyrazol-3-yl)methyl)-N^4-(5-chloro-4-(5-(cyclopropylmethyl)-1-methyl-1H-pyrazol-4-yl)pyrimidin-2-yl)cyclohexane-1,4-diamine] | +++ (+++ indicates maximal β-catenin or p53 stabilization at >2 μM) | 
Cc1[nH]ncc1CN[C@H]1CC[C@H](Nc2ncc(Cl)c(-c3cnn(C)c3CC3CC3)n2)CC1 [Compound A91, (1R,4R)—N^1-(5-chloro-4-(5-(cyclopropylmethyl)-1-methyl-1H-pyrazol-4-yl)pyrimidin-2-yl)-N^4-((5-methyl-1H-pyrazol-4-yl)methyl)cyclohexane-1,4-diamine] | +++ (+++ indicates maximal β-catenin or p53 stabilization at >2 μM) | 
Cn1ncc(-c2nc(N[C@H]3CC[C@H](NCC(F)(F)F)CC3)ncc2Cl)c1CC1CC1 [Compound A94, (1R,4R)—N^1-(5-chloro-4-(5-(cyclopropylmethyl)-1-methyl-1H-pyrazol-4-yl)pyrimidin-2-yl)-N^4-(2,2,2-trifluoroethyl)cyclohexane-1,4-diamine] | + (+ indicates low, yet significant activation at a compound concentration of 6 μM) | 
Cn1ncc(-c2nc(N[C@H]3CC[C@H](N(Cc4cn[nH]c4)CC(F)(F)F)CC3)ncc2Cl)c1CC1CC1 [Compound A95, (1R,4R)—N1-((1H-pyrazol-4-yl)methyl)-N4-(5-chloro-4-(5-(cyclopropylmethyl)-1-methyl-1H-pyrazol-4-yl)pyrimidin-2-yl)-N1-(2,2,2-trifluoroethyl)cyclohexane-1,4-diamine] | +++ (+++ indicates maximal β-catenin or p53 stabilization at >2 μM) | 
